{"source": "patent US9469878B2", "about": "“Methods of treating cancer comprising targeting NQO1” (The Board of Regents of the University of Texas System, priority 2010, dated 2016)", "key": {"NQO1": {"target": "NQO1 (Homo sapiens, UniProt P15559)", "sequence (P15559 whole entry)": "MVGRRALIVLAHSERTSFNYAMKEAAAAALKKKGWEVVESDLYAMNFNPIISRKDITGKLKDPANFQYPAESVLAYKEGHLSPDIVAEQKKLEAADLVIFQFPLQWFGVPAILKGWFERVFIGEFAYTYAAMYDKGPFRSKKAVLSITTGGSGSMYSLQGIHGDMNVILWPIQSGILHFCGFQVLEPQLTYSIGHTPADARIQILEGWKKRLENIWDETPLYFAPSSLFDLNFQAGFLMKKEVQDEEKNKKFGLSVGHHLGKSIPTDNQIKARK", "test": "NADH recycling assay (NQO1 futile cycling)", "format": "biochemical", "design": "S9 Supernatants were prepared from cells in mid-log to late log phase growth; endogenous in cells; host or cells: cancer cell lines, mostly from a non-small cell lung cancer panel (e.g. Calu-3); S9 supernatants", "conditions": "in 5 min, NQO1 futile cycle", "method": "Assays were performed with either purified NQO1 or S9 extracts from MCF-7:WS8, or other cancer or normal cells. For the assay using purified NQO1, […] of recombinant human NQO1 was mixed with 200-500 μM NADH in 50 mM potassium phosphate buffer, pH 7.0."}, "[1]": {"tested_on": "orthotopic lung tumors, *2/*2 or *3/*3", "test": "Survival of mice bearing orthotopic lung tumors", "format": "in vivo", "conditions": "*2/*2 or *3/*3 tumors, β-lap-HPβ-CD intravenously, 5 doses every other day", "method": "FIG. 16 depicts NQO1 levels predict response to NQO1 bioactivatable therapies. In (a) LD50 responses of non-small cell lung cancer (NSCLC) cell lines treated with β-Lap for 2 h and harvester 7 days later. LD50 responses were plotted as a function of NQO1 enzymatic levels. The notations, *1/*1 and *2/*2 represent the NQO1 status of each cell line as homozygous wild type (*1/*1) or homozygous polymorphic (*2/*2) genotypes. Note that all heterozygote cells containing one wild-type allele (*1) are wild-type, phenotypically, for NQO1 expression, such that only homozygous *2/*2 or 3/3 are considered non-responsive to NQO1 bioactivatable drugs. Note the high resistance of H596 and H2862 cell lines to β-lapachone compared to all of the wild-type *1/*1 cells with LD50 values less than 5 μM. Note also that *3/*3 SNPs in NQO1 are far more rare than *2/*2 single point mutations in NQO1. In (b), Kaplan-Meier survival curve of mice bearing orthotopic lung tumors implanted with *1/*1 A549 cells. Mice were treated intravenously (5 doses every other day) with β-lap-HPβ-CD or vehicle alone (HPβ-CD). Similar studies with *2/*2 or *3/*3 tumors were performed and these tumors were non-responsive to β-lapachone or other NQO1 bioactivatable drug therapies."}, "PC-3 cells [2]": {"tested_on": "PC-3 cells", "test": "Relative DNA cell survival assay, β-lap with or without IR", "format": "cell-based, human", "conditions": "for Equivalent dose of IR / Equivalent dose of β-Lap: Machado's model", "method": "Relative DNA cell survival assays were assessed after various treatments. Briefly, cells were seeded at 5×10^3 per well in 48-well plates and allowed to attach overnight. […] DNA content was then determined by Hoeschst 33258 dye staining and fluorescence detection using a plate reader (Perkin-Elmer, Boston, Mass.) as described. Relative survival assays after combined treatment were confirmed by colony-forming ability assays as described. Results were reported as means±SE from at least three independent experiments. For relative survival data, different combinations of IR+β-lap exposures were fit with simple multi-target models in SigmaPlot for Windows Version 11.0. For synergy, a statistical definition of synergy (48) was used and calculations were performed by fitting experimental data with the Machado and Robinson model using the R code (47). The equitoxic doses listed in Table 1 were calculated by the parameters of the model of Machado and Robinson obtained in fitting."}, "[3]": {"tested_on": "HMEC 1585 normal human mammary epithelial cells", "method": "Cells were cultured and treated as described above. […] Experiments were repeated at least three times, and data expressed as relative survival (treated/control×100%) means±SEM. […] The multi-target model was used to describe the shape of relative survival curves. In this model, a final slope (D0) resulting from multiple-event killing and quasithreshold (Dq) doses were used to represent the size or width of the shoulder of the curve. The extrapolation number (n) is also a measure of the width of the shoulder. The three parameters, n, Do, and Dq were related by the expression: loge n=Dq/Do.\nCells were treated with β-lap with or without dicoumarol for 2 h. […] Data were expressed as relative survival (treated/control×100%). Experiments were repeated at least three times, and data expressed as relative survival means±SEM. […] Human mammary epithelial cells were plated in 48 well dishes in growth media containing a 50:50 mixture of MGEM/DME:F12 medium supplemented with insulin, human epidermal growth factor and hydrocortisone."}, "PARP-1 in PC-3 cells": {"tested_on": "PARP-1 in PC-3 cells", "test": "PAR formation (PARP-1 hyperactivation), Western blot", "format": "cell-based, human", "method": "Whole-cell extracts were prepared, proteins separated by SDSPAGE, and Western blots developed using SuperSignal® West Pico Chemiluminescent substrate (Thermo Scientific, Rockford, Ill.), and exposed using Autoradiography Film (Denville Scientific Inc., Metuchen, N.J.). Both PAR (BD Pharmingen, San Jose, Calif.) and γH2AX (Upstate, Billerica, Mass.) antibodies were used at 1:2000 and 1:1000 dilutions, respectively. […] or α-tubulin levels were used as loading control."}, "[4]": {"tested_on": "Human (shown) or mouse rbs", "test": "Hemolysis of red blood cells", "format": "cell-based", "conditions": "rbs incubated with HPβCD alone, HPβCD-β-lap, or β-lap alone in DMSO", "method": "Human (shown) or mouse rbs were incubated with HPβCD alone or HPβCD-β-lap, or β-lap alone in DMSO."}, "PC-3 cells [5]": {"tested_on": "PC-3 cells", "test": "Alkaline comet assay", "format": "cell-based, human", "conditions": "PC-3 cells after exposure to 4 μM β-lap", "method": "DNA lesions, including total base damage, DSBs and SSBs, versus DSBs were assessed using single-cell gel electrophoretic comet assays under alkaline or neutral conditions, respectively (TREVIGEN, Gaithersburg, Md.). Slides were stained with SYBR Green and visualized using a Nikon Eclipse TE2000-E fluorescence microscope (Melville, N.Y.). Digital photomicrographs were taken and comet tail lengths quantified using NIH Image J software. Each datum point represents an average of 100 cells±SE, and data are representative of experiments performed in triplicate."}}}
{"smiles": "CC1(C)CCC2=C(O1)c1ccccc1C(=O)C2=O", "note": "[β-Lap, 3,4-dihydro-2,2-dimethyl-2H-naphtho[1,2-b]pyran-5,6-dione]", "values": [{"measurement": "NAD(P)H used per mole of β-lap", "setting": "NQO1", "result": "> 60", "unit": "mol"}, {"measurement": "Response of tumors", "setting": "[1]", "result": "non-responsive"}, {"measurement": "Exposure time sufficient to achieve maximal cytotoxicity", "setting": "PC-3 cells [2]; 4 μM β-lap", "result": "~120", "unit": "min"}, {"measurement": "β-lap dose with the same effect as the combination", "setting": "PC-3 cells [2]; 1 Gy+1 μM β-lap", "result": 4, "unit": "µM"}, {"measurement": "Equivalent dose of IR", "setting": "PC-3 cells [2]; IR 0 Gy + β-Lap 1 μM", "result": 0.6, "unit": "Gy"}, {"measurement": "Equivalent dose of β-Lap", "setting": "PC-3 cells [2]; IR 0 Gy + β-Lap 1 μM", "result": 1, "unit": "µM"}, {"measurement": "Equivalent dose of IR", "setting": "PC-3 cells [2]; IR 0 Gy + β-Lap 2 μM", "result": 1.2, "unit": "Gy"}, {"measurement": "Equivalent dose of β-Lap", "setting": "PC-3 cells [2]; IR 0 Gy + β-Lap 2 μM", "result": 2, "unit": "µM"}, {"measurement": "Equivalent dose of IR", "setting": "PC-3 cells [2]; IR 0 Gy + β-Lap 3 μM", "result": 1.7, "unit": "Gy"}, {"measurement": "Equivalent dose of β-Lap", "setting": "PC-3 cells [2]; IR 0 Gy + β-Lap 3 μM", "result": 3, "unit": "µM"}, {"measurement": "Equivalent dose of IR", "setting": "PC-3 cells [2]; IR 1 Gy + β-Lap 1 μM", "result": 1.7, "unit": "Gy"}, {"measurement": "Equivalent dose of β-Lap", "setting": "PC-3 cells [2]; IR 1 Gy + β-Lap 1 μM", "result": 4.1, "unit": "µM"}, {"measurement": "Equivalent dose of IR", "setting": "PC-3 cells [2]; IR 1 Gy + β-Lap 2 μM", "result": 2.1, "unit": "Gy"}, {"measurement": "Equivalent dose of β-Lap", "setting": "PC-3 cells [2]; IR 1 Gy + β-Lap 2 μM", "result": 5.6, "unit": "µM"}, {"measurement": "Equivalent dose of IR", "setting": "PC-3 cells [2]; IR 1 Gy + β-Lap 3 μM", "result": 2.7, "unit": "Gy"}, {"measurement": "Equivalent dose of β-Lap", "setting": "PC-3 cells [2]; IR 1 Gy + β-Lap 3 μM", "result": 6.8, "unit": "µM"}, {"measurement": "Equivalent dose of IR", "setting": "PC-3 cells [2]; IR 2 Gy + β-Lap 1 μM", "result": 2.6, "unit": "Gy"}, {"measurement": "Equivalent dose of β-Lap", "setting": "PC-3 cells [2]; IR 2 Gy + β-Lap 1 μM", "result": 7.9, "unit": "µM"}, {"measurement": "Equivalent dose of IR", "setting": "PC-3 cells [2]; IR 2 Gy + β-Lap 2 μM", "result": 3.1, "unit": "Gy"}, {"measurement": "Equivalent dose of β-Lap", "setting": "PC-3 cells [2]; IR 2 Gy + β-Lap 2 μM", "result": 9.6, "unit": "µM"}, {"measurement": "Equivalent dose of IR", "setting": "PC-3 cells [2]; IR 2 Gy + β-Lap 3 μM", "result": 3.6, "unit": "Gy"}, {"measurement": "Equivalent dose of β-Lap", "setting": "PC-3 cells [2]; IR 2 Gy + β-Lap 3 μM", "result": 11.5, "unit": "µM"}, {"measurement": "Equivalent dose of IR", "setting": "PC-3 cells [2]; IR 3 Gy + β-Lap 1 μM", "result": 3.7, "unit": "Gy"}, {"measurement": "Equivalent dose of β-Lap", "setting": "PC-3 cells [2]; IR 3 Gy + β-Lap 1 μM", "result": 12.5, "unit": "µM"}, {"measurement": "Equivalent dose of IR", "setting": "PC-3 cells [2]; IR 3 Gy + β-Lap 2 μM", "result": 4.1, "unit": "Gy"}, {"measurement": "Equivalent dose of β-Lap", "setting": "PC-3 cells [2]; IR 3 Gy + β-Lap 2 μM", "result": 14.5, "unit": "µM"}, {"measurement": "Equivalent dose of IR", "setting": "PC-3 cells [2]; IR 3 Gy + β-Lap 3 μM", "result": 4.6, "unit": "Gy"}, {"measurement": "Equivalent dose of β-Lap", "setting": "PC-3 cells [2]; IR 3 Gy + β-Lap 3 μM", "result": 16, "unit": "µM"}, {"measurement": "LD50 β-Lap", "setting": "[3]", "result": ">10"}, {"measurement": "PAR formation after combined treatment", "setting": "PARP-1 in PC-3 cells; 1 Gy+3 μM β-lap, PC-3 cells, at 60 mins, no apparent levels after each agent alone", "result": "dramatic PAR formation"}, {"measurement": "Time to significant accumulation of PAR", "setting": "PARP-1 in PC-3 cells; β-lap-exposed PC-3 cells, blocked by dicoumarol", "result": "10 to 20", "unit": "min"}, {"measurement": "Hemolysis", "setting": "[4]", "result": "hemolysis by HPβCD and not β-lapachone"}, {"measurement": "IR dose equivalent to DNA lesions by alkaline assays", "setting": "PC-3 cells [5]", "result": 20, "unit": "Gy"}]}
